The record followed here is patent publication US5387600A, “Treating arteriosclerosis using benzimidazole compositions” (priority 1992, dated 1995).

Read-outs that look alike come from different tables or passages of the source.

Data set [1] has as its system mouse abdominal cavity macrophage. In words: In vitro test for suppressing effect of macrophage-foaming reaction. As to conditions: compared with control; for activity at 5 µM: Mus musculus, Macrophage, 16 h. Format: cell-based. The protocol:
(1) In vitro test for suppressing effect of macrophage-foaming reaction using mouse abdominal cavity macrophage
A 15-week old ICR female mouse (Japan SLC) was amputated at its neck and exsanguinated. Then, Hanks buffer (Nissui Pharmaceutical Co., Ltd.) was injected intraperitoneally. After massaging the abdominal part, the buffer was recovered rapidly and centrifuged at 1,000 rpm for 5 minutes to collect the abdominal cavity macrophage. Then, the collected abdominal cavity macrophage was suspended in GIT medium (Wako Pure Chemical Industry) and inoculated on a 24-well microplate. After culturing the macrophage for 2 hours at 37° C. in 5% CO2, the medium was changed into Dulbecco modified Eagle's MEM medium (Nissui Pharmaceutical Co., Ltd.). After further culturing the macrophage for 16 hours at 37° C. in 5% CO2, the following substances were added in order:
1 Test compounds: solutions in DMSO (Wako Pure Chemical Industry) 1 ml of the solutions were prepared, optionally diluted and the diluted solutions were added to individual wells (500 μl) in the amount of 5μl.
PC: phosphatidylcholine (Funakoshi)
PS: phosphatidylserine (Funakoshi)
DCP: dicetylphosphate (Funakoshi)
CHOL.: cholesterol (Sigma)
3 ^3 H-Oleic acid (Amersham Japan)
Then, after still further culturing the macrophage for 16 hours at 37° C. in 5% CO2, the lipid fraction was extracted with chloroform and methanol. The extracted lipid fraction was subjected to TLC (hexane:ether:acetic acid=70:30:1), the separated bands of CE (cholesterylester) and TG (triglyceride) were borne off from the TLC plate and then the radioactivities thereof were measured using a liquid scintillation counter (PACKARD BH-22). Yields of cholesteryl ester were calculated by comparing with a control.

In data set [2] the test system is rabbit fed high-cholesterol feed. The data set is described as follows: Blood lipid lowering effect in rabbit fed high-cholesterol feed. Format: in vivo. The following applies: New Zealand White female rabbits, 100 mg/kg/day in feed for 7 successive days. From the text: (2) Blood lipid lowering effect in rabbit fed high-cholesterol feed (i) New Zealand White female rabbits having body weight of about 2 kg were fed feed having high cholesterol content (100 g/day/rabbit: ORC-4 manufactured by Oriental Yeast, containing 0.5% of cholesterol and 0.5% of olive oil) for 7 days to produce hypercholesterolemia.
Subsequently, one group consisting of 3 rabbits (treatment group) was fed the same feed in the same amount, except that the feed further contained test compound (8) in the amount of 100 mg/kg/day/rabbit, for 7 successive days. On the other hand, as a control, another group consisting of 3 rabbits was fed the same feed in the same amount without any test compound.
(§1) A small amount of blood was drawn from the parotic vein of every rabbit once a week and was measured for amount of blood total cholesterol using IATROLIPO TC manufactured by Iatron Laboratories Inc.
Thus, it is clear that test compound (8) has an excellent lowering effect of the blood cholesterol. (ii) New Zealand White female rabbits having body weight of about 2 kg were fed feed having high cholesterol content (100 g/day/rabbit: ORC-4 manufactured by Oriental Yeast, containing 0.5% of cholesterol and 0.5% of olive oil) for 7 days to produce hypercholesterolemia. […]

Data set [3] concerns rabbit fed normal feed. In words: Blood lipid lowering effect in rabbit fed normal feed. Format: in vivo. As to conditions: New Zealand White female rabbits, 100 mg/kg/day in feed for 7 successive days. How it is done: (3) Blood lipid lowering effect in rabbit fed normal feed (i) New Zealand White female rabbits having body weight of about 2 kg were fed normal feed (100 g/day/rabbit: ORC-4 manufactured by Oriental Yeast) for 7 days.
Subsequently, one group consisting of 3 rabbits (treatment group) was fed the normal feed in the same amount, except that the feed further contained test compound (8) in the amount of 100 mg/kg/day/rabbit, for 7 successive days. As a control, another group consisting of 3 rabbits was fed the normal feed in the same amount without any test compound.
A Small amount of blood was drawn from the parotic vein of every rabbit once a week and was measured for amount of blood total cholesterol using IATROLIPO TC manufactured by Iatron Laboratories Inc.
Thus, it is clear that test compound (8) has an excellent blood cholesterol lowering effect not only on rabbits fed high-cholesterol feed but also on rabbits fed normal feed. (ii) New Zealand White female rabbits having body weight of about 2 kg were fed normal feed (100 g/day/rabbit: ORC-4 manufactured by Oriental Yeast) for 7 days. […]
as §1

The nature of data set [4]: Acute toxicity test. The following applies: mouse, in vivo; oral, suspension in 0.5% Tween 80, 8-week old ddy mice. From the text:
Compounds (8) and (53) each was suspended in 0.5% Tween 80 solution. Six 8-week old ddy mice were orally administered the suspensions respectively and were observed on acute toxicity.

Data set [5] deals with rabbit fed feed having high cholesterol content. The data set is described as follows: Arteriosclerosis focus formation-regressing effect in rabbit fed feed having high cholesterol content. The following applies: 100 mg/kg/day in feed for 20 successive days. It counts as in vivo. The source says:
(4) Arteriosclerosis focus formation-regressing effect in rabbit fed feed having high cholesterol content
New Zealand White female rabbits having body weight of about 2 kg were fed feed having high cholesterol content (100 g/day/rabbit: ORC-4 manufactured by Oriental Yeast, containing 0.5% of cholesterol and 0.5% of olive oil) for 7 days to produce hypercholesterolemia.
Subsequently, one group consisting of 3 rabbits (treatment group) was fed the same feed in the same amount, except that the feed further contained test compound (53) in the amount of 100 mg/kg/day/rabbit, for 20 successive days. On the other hand, as a control, another group consisting of 3 rabbits was fed the same feed in the same amount without any test compound.
After 20 weeks from the administration of the test compound, the aortas and arch part thereof were removed from each rabbit and the blood vessels were opened. Comparing the treatment group with the control group, it was observed that the arteriosclerosis focus formation was suppressed effectively in the treatment group.

Where [6] appears, read: cholesteryl ester from 3H-oleic acid, read-out: Yield of CE (%).
The mark [7] stands for this setting: triglyceride from 3H-oleic acid, read-out: Yield of TG (%).

As for `Cc1nc2ccc([N+](=O)[O-])cc2[nH]1` [(5), 2-metyl-5-nitrobenzimidazole], the activity at 5 µM in data set [1] (setting [6]) was 67%; in data set [1] (setting [7]), 89%.

With `O=[N+]([O-])c1ccc2nc(CCCCCCCCc3nc4ccc([N+](=O)[O-])cc4[nH]3)[nH]c2c1` [(6), 1,8-bis(5-nitrobenzimidazol-2-yl) octane], the activity at 5 µM in data set [1] (setting [6]) was 8%; in data set [1] (setting [7]), 61%.

Consider `c1ccc(CSc2nc3ccccc3[nH]2)cc1` [(7), 2-benzylthiobenzimidazole], for which the activity at 5 µM in data set [1] (setting [6]) came to 61%; in data set [1] (setting [7]), 91%.

On to `CCCCCCCCCCCC(=O)Nc1ccc2nc(S)[nH]c2c1` [(8), 5-dodecanoylamino-2-mercaptobenzimidazole], for which the activity at 5 µM in data set [1] (setting [6]) came to 42%; in data set [1] (setting [7]) it was 106%. Also, the “fall of amount of blood total cholesterol in comparison with the control group” value in data set [2] was 25%; in data set [3], 20%. The compound also displayed an LD50 in data set [4] of no less than 1000 mg/kg.

As to `CCCCCCCCCC(=O)Nc1ccc2[nH]c(S)nc2c1` [(10)], the activity at 5 µM in data set [1] (setting [6]) came out at 69%; in data set [1] (setting [7]), 129%.

Take `CCCCCCCCCCCCNS(=O)(=O)c1ccc2[nH]c(S)nc2c1` [(12)]: the activity at 5 µM in data set [1] (setting [6]) stood at 52%; in data set [1] (setting [7]), 102%.

In the case of `CCCCCCCCCCCCCCCCSc1nc2ccccc2[nH]1` [(20)], the activity at 5 µM came out at 49% in data set [1] (setting [6]) and 62% in data set [1] (setting [7]).

For the compound `CCCCCCCCS(=O)(=O)Nc1ccc2[nH]c(S)nc2c1` [(21)], the activity at 5 µM stood at 64% in data set [1] (setting [6]) and 93% in data set [1] (setting [7]).

On to `CC(CC(=O)Nc1ccc2[nH]c(S)nc2c1)CC(C)(C)C` (stereo not drawn) [(23)], for which the activity at 5 µM came out at 56% in data set [1] (setting [6]) and 119% in data set [1] (setting [7]).

For `CCCCCCCCOc1ccc2[nH]c(S)nc2c1` [(27)], the figures for the activity at 5 µM in data set [1] (setting [6]) and in data set [1] (setting [7]) were 51% and 78%, respectively.

For `CCCCCCCCCCCC(=O)Nc1ccc2[nH]c(SC)nc2c1` [(28)], the activity at 5 µM in data set [1] (setting [6]) was 53%; in data set [1] (setting [7]) it was 164%.

Regarding `CCCCCCCCCCCCNC(=O)c1ccc2[nH]c(S)nc2c1` [(30)], the figures for the activity at 5 µM in data set [1] (setting [6]) and in data set [1] (setting [7]) were 51% and 91%, respectively.

Regarding `CCCCCCCCCCCCOC(=O)c1ccc2[nH]c(S)nc2c1` [(34)], the activity at 5 µM was determined as 50% in data set [1] (setting [6]) and 108% in data set [1] (setting [7]).

Turning to `CN1C(=O)C(Cl)C(Sc2nc3ccccc3[nH]2)N(C)C1=O` (stereo not drawn) [(42)], in data set [1] (5 μM, cholesteryl ester from 3H-oleic acid, 960 min), the “Yield of CE (%)” value is listed as 61%. For the same compound, the “Yield of TG (%)” value in data set [1] (5 μM, triglyceride from 3H-oleic acid, 960 min) is 96%.

For `O=C(CSc1nc2ccccc2[nH]1)c1ccccc1O` [(43)], the activity at 5 µM in data set [1] (setting [6]) turned out to be 45%; in data set [1] (setting [7]) it was 98%.

Regarding `CCCCCCCCCCCC(=O)Nc1ccc2[nH]cnc2c1` [(47)], the activity at 5 µM in data set [1] (setting [6]) was 55%; in data set [1] (setting [7]), 98%.

For `Cc1cc(Cc2cc(C)cc(C(C)(C)C)c2O)c(O)c(C(C)(C)C)c1` [(52)], the activity at 5 µM was 38% in data set [1] (setting [6]) and 101% in data set [1] (setting [7]).

Consider `Cc1cc(C)c(O)c(C(c2cc(C)cc(C)c2O)C(C)C)c1` [(53), 2,2'-isobutylidenebis(4,6-dimethyphenol)], for which the activity at 5 µM worked out at 56% in data set [1] (setting [6]) and 92% in data set [1] (setting [7]). Further, the “fall of amount of blood total cholesterol in comparison with the control group” value in data set [2] worked out at 40%; in data set [3] it was 20%. Besides, the “cholesterol deposition to the eye ball” value in data set [5] (after 20 weeks) was “suppressing”. Also, the fatty liver formation entry in data set [5] (after 20 weeks) is “suppressing”. Also, the arteriosclerosis focus formation result in data set [5] (aortas examined after 20 weeks) is on record as “suppresses”. Besides, the LD50 in data set [4] was no less than 1000 mg/kg.

As to `Cc1cc(C)c(O)c(C(CC(C)CC(C)(C)C)c2cc(C)cc(C)c2O)c1` (stereo not drawn) [(54)], the activity at 5 µM in data set [1] (setting [6]) came out at 25%; in data set [1] (setting [7]), 95%.

As to `CCCC(c1cc(C(C)(C)C)cc(C(C)(C)C)c1O)c1cc(C(C)(C)C)cc(C(C)(C)C)c1O` [(56)], the activity at 5 µM in data set [1] (setting [6]) stood at 51%; in data set [1] (setting [7]) it was 102%.

In the case of `CC(=O)Oc1c(Cc2cc(C)cc(C(C)(C)C)c2O)cc(C)cc1C(C)(C)C` [(58)], the figures for the activity at 5 µM in data set [1] (setting [6]) and in data set [1] (setting [7]) were 45% and 98%, respectively.

In the case of `Cc1cc(C(c2ccccc2)c2cc(C)cc(C(C)(C)C)c2O)c(O)c(C(C)(C)C)c1` [(60)], the activity at 5 µM in data set [1] (setting [6]) was 48%; in data set [1] (setting [7]), 96%.

On to `CCCCCCCC(c1cc(C)cc(C2(C)CCCCC2)c1O)c1cc(C)cc(C2(C)CCCCC2)c1O` [(61)], for which the activity at 5 µM is 52% in data set [1] (setting [6]) and 103% in data set [1] (setting [7]).

As for `Cc1cc(C)c(O)c(C(C)(C)c2cc(C)cc(C)c2O)c1` [(62)], the activity at 5 µM in data set [1] (setting [6]) came out at 61%; in data set [1] (setting [7]) it was 98%.

Turning to `CCC(C)(C)c1cc(C(C)c2cc(C(C)(C)CC)cc(C(C)(C)CC)c2O)c(O)c(C(C)(C)CC)c1` [(63), 2,2'-ethylidenebis(4,6-di-tert-pentylphenol)], the activity at 5 µM turned out to be 42% in data set [1] (setting [6]) and 96% in data set [1] (setting [7]).

For the compound `CCC(C)c1cc(C(C)CC)c(O)c(C(c2cc(C(C)CC)cc(C(C)CC)c2O)C(C)C)c1` (stereo not drawn) [(65)], the values for the activity at 5 µM in data set [1] (setting [6]) and in data set [1] (setting [7]) were 38% and 101%, respectively.

As for `Cc1cc(C)c(O)c(Cc2cc(C(C)(C)C)cc(C(C)(C)C)c2O)c1` [(66)], the values for the activity at 5 µM in data set [1] (setting [6]) and in data set [1] (setting [7]) were 54% and 108%, respectively.

For the compound `COC(=O)CCCC(C)(C)c1cc(C)cc(Cc2cc(C)cc(C(C)(C)CCCC(=O)OC)c2O)c1O` [(67)], the activity at 5 µM in data set [1] (setting [6]) came out at 42%; in data set [1] (setting [7]), 92%.

Regarding `CCOC(=O)Oc1c(C)cc(C)cc1C(c1cc(C)cc(C)c1O)C(C)C` (stereo not drawn) [(73)], the activity at 5 µM was found to be 48% in data set [1] (setting [6]) and 90% in data set [1] (setting [7]).

`Cc1cc(C(CCc2ccccc2)c2cc(C)cc(C(C)(C)C)c2O)c(O)c(C(C)(C)C)c1` [(74)]: the activity at 5 µM in data set [1] (setting [6]) stood at 65%; in data set [1] (setting [7]) it was 108%.

Broadly, the LD50 is the dose at which mortality reaches 50%. A lower LD50 goes with a more toxic substance.
